Assay results from patent US7330794B2, “Water monitoring system using bivalve mollusks” (Aqueous Solutions, Inc., priority 2000, dated 2008).

Test system: bivalve mollusks
Experiment: Water screening with bivalve mollusks: shell gape and Degree of Alarm (DOA) on toxicant exposure
Assay type: in vivo
Protocol: Further calibration of the system is performed after one or more mollusk chambers are properly installed. The digital circuitry or computer 39 then monitors the gape of the mollusk during approximately the first three days after installation. From the gape values derived during this period, the computer derives a natural maximum gape value for the individual mollusk. Subsequent calculations based on output from the mollusk chamber 15 are based on the percentage of gape, i.e., the percentage of the maximum gape output value that the presently detected gape output value represents.
When the system 3 contains a number of mollusk chambers 15, the individual mollusk percentage gape data for all of the mollusks of the system is totaled, and the average percentage gape value calculated periodically per sampling interval by computer 38. This mean data value Gi is the variable used as the mollusk output data for determining if toxicants are present in the water being screened.
In the present specification, Gi means the current average mollusk gape data, Gi−i means the most recent earlier mollusk output value, Gi−2 the next earlier mollusk output variable, etc. The oldest of the gape values is Gi−n+1. Preferably, the set of data values Gi−n+1 to Gi are stored in a FIFO (first-in, first-out) stack data structure in the computer doing the analysis. The stack acts as a shift register, shifting earlier data values as the new data value Gi is acquired. Preferably the value of n is 30, and the data values G are acquired every half-second.
According to an aspect of the invention, the variance over time of the gape values is one of the best statistical indicators of the pumping of the mollusk. By the term variance, what is meant is a determination of the variability of the gape values from a mean value, which may be determined or expressed using a variety of functions. Particularly preferred, however, is the classical calculation of variance as:
In a basic method for toxicant detection, DOA is calculated continuously using the formula DOA=(V·|R|)/M wherein V is the mean variance in gape over a recent period of time, preferably 30 seconds, R is the mean regression of the gape over the period (regression herein meaning the slope of the best-fit line through the data values of the time period). M may be the traveling mean as defined above, or may be the mean gape taken over another longer period, preferably about one hour.
An implementation of this method is shown by the graphs of FIGS. 7 to 10. Water being screened by a system as described previously was loaded with sulphuric acid, resulting in a drop in pH as shown in the graph of FIG. 7.
When the variance is below this threshold value, a first, less sensitive function of the gape data values is used to calculate the DOA value. Such a function might be a linear calculation such as DOA=(1−Gi)*10 which would yield a DOA value between 0 and 10, with 10 corresponding to the mollusk completely closing its shell and strongly indicating presence of toxicant.
When the variance value is greater than or equal to the threshold value, the DOA value may be calculated by a different function which amplifies the calculation from the closing of the shell during the period of high variance. Particularly preferred is a more sensitive high-variance function: DOA=f(Gi)+V/K
An implementation of such a DOA method using a Logistic calculation, with a variance factor added for variances over 50, is illustrated by the graphs of FIGS. 12 to 16.
In this example, a system as in Example 3 was used, only the toxicant introduced was copper (as aqueous CuSO4), as shown in FIG. 17.

In the case of [Cl-].[Na+] [chloride, NaCl], the DOA output (chloride, Logistic calculation with variance factor for variances over 50, at 0.5 hours, chloride concentration still relatively low, FIG. 16) is reported as “greater than 5” and the “raw gape data, decreasing over time” value (gradually increasing concentration of chloride (aqueous NaCl), FIG. 13) is reported as “less than 40 % of normal maximum gape”.

In the case of O=S(=O)([O-])[O-].[Cu+2] [copper, CuSO4], the “gape when DOA exceeded 8” value (copper (aqueous CuSO4), between 0.5 and 1.0 hours) is reported as 50% and the DOA values (copper (aqueous CuSO4), system as in Example 3, between 0.5 and 1.0 hours, copper concentration still relatively low, FIG. 21) is reported as “exceed 8 out of a possible 10”.

For O=S(=O)(O)O [sulphuric acid], the “DOA (Degree of Alarm) values, spike” value (sulphuric acid, DOA=(V·|R|)/M, appears before 200 minutes, FIG. 10) was “greater than 100”, the “percentage gape at the variance spike” value (sulphuric acid, variance spikes shortly before 200 minutes, FIG. 9) was at most 40% and the “average percentage gape of the mollusks” value (water loaded with sulphuric acid (pH drop), shortly after 200 minutes, FIG. 8) was “less than 10 % of the normal maximum”.
